How the values were obtained:
Assay in all cases: Bliss interaction score (quartile over a dose matrix) (fitness difference); higher = more antagonism (negative = synergy)
S. aureus DSM 20231 = tested on: S. aureus DSM 20231
In short: (§1)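 Growth in each well was taken as OD595 at entry into stationary phase. Dividing by the plate's robust no-drug mean and capping at 1 gave fitness, and single-drug fitness was inferred from the combination data. The Bliss score, observed minus product-expected fitness, is summarised by quartiles over technical, biological and donor/recipient replicates.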

S. aureus Newman = tested on: S. aureus Newman
In short: as §1

S. pneumoniae D39V = tested on: S. pneumoniae D39V
In short: as §1

B. subtilis 168 = tested on: B. subtilis 168
In short: as §1
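Also: first quartile when negative (synergy) and third quartile when positive (antagonism).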

SMILES | Bliss interaction score (S. aureus DSM 20231) | Bliss interaction score (S. aureus Newman) | Bliss interaction score (S. pneumoniae D39V) | Bliss interaction score (B. subtilis 168) | Bliss interaction score (S. aureus DSM 20231; main component drawn) | Bliss interaction score (S. aureus Newman; main component drawn) | Bliss interaction score (S. pneumoniae D39V; main component drawn) | Bliss interaction score (B. subtilis 168; main component drawn)
CC(=O)O[C@H]1C[C@@]2(C)[C@@H](C[C@@H](O)[C@H]3[C@@]4(C)CC[C@@H](O)[C@@H](C)[C@@H]4CC[C@@]32C)/C1=C(\CCC=C(C)C)C(=O)O [Fusidic acid] + C[n+]1ccc(-c2cc[n+](C)cc2)cc1 [Paraquat] | 0.0328 | 0.0284 | 0.0439 | 0.0317 | – | – | – | –
CC(=O)O[C@H]1C[C@@]2(C)[C@@H](C[C@@H](O)[C@H]3[C@@]4(C)CC[C@@H](O)[C@@H](C)[C@@H]4CC[C@@]32C)/C1=C(\CCC=C(C)C)C(=O)O [Fusidic acid] + Cc1cc(NS(=O)(=O)c2ccc(N)cc2)no1 [Sulfamethoxazol] | -0.0234 | -0.026 | 0.0975 | 0.0933 | – | – | – | –
CC(=O)O[C@H]1C[C@@]2(C)[C@@H](C[C@@H](O)[C@H]3[C@@]4(C)CC[C@@H](O)[C@@H](C)[C@@H]4CC[C@@]32C)/C1=C(\CCC=C(C)C)C(=O)O [Fusidic acid] + Cc1ncc([N+](=O)[O-])n1CCO [Metronidazole] | -0.0408 | -0.0202 | 0.133 | 0.0703 | – | – | – | –
CC(=O)O[C@H]1C[C@@]2(C)[C@@H](C[C@@H](O)[C@H]3[C@@]4(C)CC[C@@H](O)[C@@H](C)[C@@H]4CC[C@@]32C)/C1=C(\CCC=C(C)C)C(=O)O [Fusidic acid] + Cc1onc(-c2ccccc2)c1C(=O)N[C@@H]1C(=O)N2[C@@H]1SC(C)(C)[C@@H]2C(=O)O [Oxacillin] | 0.044 | 0.0784 | 0.152 | 0.0607 | – | – | – | –
CC(=O)O[C@H]1C[C@@]2(C)[C@@H](C[C@@H](O)[C@H]3[C@@]4(C)CC[C@@H](O)[C@@H](C)[C@@H]4CC[C@@]32C)/C1=C(\CCC=C(C)C)C(=O)O [Fusidic acid] + Clc1ccc(COC(Cn2ccnc2)c2ccc(Cl)cc2Cl)c(Cl)c1 [Miconazole] | 0.0483 | -0.0399 | -0.117 | -0.0605 | – | – | – | –
CC(=O)O[C@H]1C[C@@]2(C)[C@@H](C[C@@H](O)[C@H]3[C@@]4(C)CC[C@@H](O)[C@@H](C)[C@@H]4CC[C@@]32C)/C1=C(\CCC=C(C)C)C(=O)O [Fusidic acid] + Cn1nnc(-c2ccc(-c3ccc(N4C[C@H](CO)OC4=O)cc3F)cn2)n1 [Tedizolid] | -0.0507 | -0.048 | -0.0933 | -0.131 | – | – | – | –
CC(=O)O[C@H]1C[C@@]2(C)[C@@H](C[C@@H](O)[C@H]3[C@@]4(C)CC[C@@H](O)[C@@H](C)[C@@H]4CC[C@@]32C)/C1=C(\CCC=C(C)C)C(=O)O [Fusidic acid] + O=C1CN(/N=C/c2ccc([N+](=O)[O-])o2)C(=O)N1 [Nitrofurantoin] | -0.0226 | -0.0292 | -0.186 | -0.0345 | – | – | – | –
CC(=O)O[C@H]1C[C@@]2(C)[C@@H](C[C@@H](O)[C@H]3[C@@]4(C)CC[C@@H](O)[C@@H](C)[C@@H]4CC[C@@]32C)/C1=C(\CCC=C(C)C)C(=O)O [Fusidic acid] + Oc1cc(Cl)ccc1Oc1ccc(Cl)cc1Cl [Triclosan] | -0.0259 | 0.0305 | 0.124 | 0.0422 | – | – | – | –
C[C@@H](O)[C@H]1C(=O)N2C(C(=O)O)=C(SCCNC=N)C[C@H]12 [Imipenem] + CC1(C)S[C@@H]2[C@H](NC(=O)Cc3ccccc3)C(=O)N2[C@H]1C(=O)O [PenicillinG] | -0.0614 | -0.198 | -0.0999 | 0.0587 | – | – | – | –
C[C@@H](O)[C@H]1C(=O)N2C(C(=O)O)=C(SCCNC=N)C[C@H]12 [Imipenem] + CCCCCCCCCC(=O)N[C@@H]1[C@H]([C@@H]([C@H](O[C@H]1OC2=C3C=C4C=C2OC5=C(C=C(C=C5)[C@H]([C@H]6C(=O)N[C@@H](C7=C(C(=CC(=C7)O)OC8[C@H]([C@H]([C@@H]([C@H](O8)CO)O)O)O)C9=C(C=CC(=C9)[C@H](C(=O)N6)NC(=O)[C@@H]4NC(=O)[C@@H]1C2=CC(=CC(=C2)OC2=C(C=CC(=C2)[C@H](C(=O)N[C@H](CC2=CC(=C(O3)C=C2)Cl)C(=O)N1)N)O)O)O)C(=O)O)O[C@H]1[C@@H]([C@H]([C@@H]([C@H](O1)CO)O)O)NC(=O)C)Cl)CO)O)O [Teicoplanin] | – | – | – | – | 0.0578 | 0.0599 | -0.102 | -0.0771
C[C@@H](O)[C@H]1C(=O)N2C(C(=O)O)=C(SCCNC=N)C[C@H]12 [Imipenem] + CC[C@H]1OC(=O)[C@H](C)C(=O)[C@H](C)[C@@H](O[C@@H]2O[C@H](C)C[C@H](N(C)C)[C@H]2O)[C@](C)(OC)C[C@@H](C)C(=O)[C@H](C)[C@H]2N(CCCCn3cnc(-c4cccnc4)c3)C(=O)O[C@]12C [Telithromycin] | -0.0311 | -0.0123 | 0.0906 | 0.0561 | – | – | – | –
C[C@@H](O)[C@H]1C(=O)N2C(C(=O)O)=C(SCCNC=N)C[C@H]12 [Imipenem] + CN[C@H](CC(C)C)C(=O)N[C@H]1C(=O)N[C@@H](CC(N)=O)C(=O)N[C@H]2C(=O)N[C@H]3C(=O)N[C@H](C(=O)N[C@H](C(=O)O)c4cc(O)cc(O)c4-c4cc3ccc4O)[C@H](O[C@H]3C[C@](C)(N)[C@@H](O)[C@H](C)O3)c3ccc(c(Cl)c3)Oc3cc2cc(c3O[C@@H]2O[C@H](CO)[C@@H](O)[C@H](O)[C@H]2O[C@H]2C[C@](C)(NCc3ccc(-c4ccc(Cl)cc4)cc3)[C@@H](O)[C@H](C)O2)Oc2ccc(cc2Cl)[C@H]1O [Oritavancin] | -0.0256 | 0.0479 | -0.0529 | 0.0293 | – | – | – | –
C[C@@H](O)[C@H]1C(=O)N2C(C(=O)O)=C(SCCNC=N)C[C@H]12 [Imipenem] + CO[C@@H]1[C@@H](OC(N)=O)[C@@H](O)[C@H](Oc2ccc3c(O)c(NC(=O)c4ccc(O)c(CC=C(C)C)c4)c(=O)oc3c2C)OC1(C)C [Novobiocin] | 0.0228 | -0.0163 | -0.107 | -0.166 | – | – | – | –

Source: the supplement of paper PMC10627819
